{"source": "patent US20210278391A1", "about": "“COMPOSITIONS AND METHODS FOR TREATING CARDIOVASCULAR AND METABOLIC CONDITIONS” (The Regents of the University of California, priority 2017, published 2021)", "key": {"ob/ob mice": {"tested_on": "ob/ob mice", "experiment": "Glucose and insulin tolerance, plasma insulin, food intake, body weight in ob/ob mice treated with BT2", "type": "in vivo, mouse", "details": "BT2 40 mg/kg/day", "description": "(§1) Animals were euthanized using carbon dioxide asphyxiation followed by cervical dislocation and then dissected. Blood was harvested by cardiac puncture and centrifuged to isolate plasma which was stored at −80° C. Acidified citrate dextrose was used as an anticoagulant. Immediately after blood collection, heart, liver, kidneys, and both hind leg quadriceps muscles were removed and snap frozen in liquid nitrogen.\nMice were fasted for 6 hours. For insulin tolerance test, mice were injected (intraperitoneal) with insulin (0.75 U/kg body weight). For glucose tolerance test, mice were injected intraperitoneally with D-glucose (2 g/kg body weight). Experiments were performed between 14:00 and 16:00. Blood was drawn 0, 15, 30, 60, and 120 min after insulin or glucose administration. Blood glucose concentrations were measured through tail bleeding before and at the times indicated after injection. Blood glucose was measured using a portable glucometer (Johnson&Johnson). Plasma insulin and TNFα concentrations were measured by Milliplex Multiplex Immunoassay Kits MMHMAG-44K-14 (Merck Millipore, Darmstadt, Germany)."}, "BCKD [1]": {"tested_on": "BCKD", "experiment": "BCKD activity in mouse cardiac tissue", "type": "in vivo", "details": "BT2 vs vehicle", "description": "PP2Cm germ-line knockout (PP2Cm-KO) mice were generated as previously described (Lu et al. (2009), supra). PP2Cm KO mice were backcrossed for more than 8 generations into a C57BL/6 background. Wild type C57BL/6 mice and PP2Cm KO mice were housed at 22° C. with a 12-hour light, 12-hour dark cycle with free access to water and standard chow. Studies were performed with male mice. Human cohorts of dilated cardiomyopathy and controls were obtained from Columbia and Duke with Institutional Review Board approval. All animal procedures were carried out in accordance with the guidelines and protocols approved by the University of California at Los Angeles Institutional Animal Care and Use Committee (IACUC). Transaortic constriction (TAC) and cardiac echocardiography were performed as reported earlier 17 on mice from different genotypes between 14 and 16 weeks of age. […] Measurements of BCKD activity in mouse cardiac tissue and plasma BCKA/BCAA concentrations were performed as previously described (Tso et al. (2014), supra)."}, "[2]": {"experiment": "Plasma BCKA/BCAA concentrations in wild-type and PP2Cm-KO mice", "type": "in vivo, mouse", "details": "BT2 vs vehicle", "description": "PP2Cm germ-line knockout (PP2Cm-KO) mice were generated as previously described (Lu et al. (2009), supra). PP2Cm KO mice were backcrossed for more than 8 generations into a C57BL/6 background. Wild type C57BL/6 mice and PP2Cm KO mice were housed at 22° C. with a 12-hour light, 12-hour dark cycle with free access to water and standard chow. Studies were performed with male mice. Human cohorts of dilated cardiomyopathy and controls were obtained from Columbia and Duke with Institutional Review Board approval. […]\nBCKA Measurements in mouse Plasma: The method published by Olson et al. (2013), supra was followed with modification. […] The samples were re-suspended in 50:50 MeOH:5 mM NH4 acetate and analyzed by LC-MS/MS using a Sciex 3200 Q-Trap coupled to a Shimadzu Prominence LC. An Agilent C18 XDB 5 micron packing column (50×4.6 mm) was used for chromatography with the following conditions: Buffer A: 5 mM NH4 acetate, Buffer B: methanol, 0-2.0 min 50% B, 2.0-2.5 min gradient to 100% B, 2.5-3.5 min 100% B, 3.5-3.6 min gradient to 50% B, 3.6-4.6 min 50% B. The derivatized keto acids were detected with the mass spectrometer in positive MRM (multiple reaction monitoring) mode using the following transitions: KIC 203.1 to 161.1 (retention time: 2.91 min); KIV 189.145 to 119.2 (retention time 2.84 min); KMV 203.065 to 174.2 (retention time 2.99 min); [^13C] […]"}, "BCKD [3]": {"tested_on": "BCKD", "experiment": "BCKD activity in tissues of ob/ob mice treated with BT2", "type": "in vivo, mouse", "details": "BT2 40 mg/kg/day oral gavage 10 weeks", "description": "as §1\n(§2) Assays for the BCKD activity were carried out as prescribed previously (Tso et al. (2014), supra). Briefly, frozen tissues were thawed and homogenized in a homogenizing buffer (30 mM KPi, pH 7.5, 3 mM EDTA, 5 mM DTT, 1 mM KIC, 3% fetal bovine serum, 5% Triton X-100, and 1 μM leupeptin). Samples were spun at 25,000×g and supernatants were collected. Diluted samples were placed in 24-well assay plates with assay buffer (30 mMKPi, pH7.5, 0.4 mM CoA, 3 mM NAD, 5% fetal bovine serum, 2 mM thiamine diphosphate, 2 mM MgCl2, and 65 μg of human E3). Keto [1-^14C] isovalerate substrate was added and assay plates were incubated at 37° C. for 30 min. 20% TCA solution was added to stop the reactions. Assay plates were incubated further at 37° C. for 45 min. ^14CO2 trapped on 2 M NaOH soaked filter wicks was counted in a liquid scintillation counter."}, "[4]": {"experiment": "Plasma BCAA/BCKA in ob/ob mice treated with BT2", "type": "in vivo, mouse", "details": "BT2 40 mg/kg/day", "description": "as §1\nThe endogenous signal from blank plasma was subtracted from each point on the standard curve, and the data were plotted in GraphPad Prism. BCAA concentrations in treated samples were determined based on this standard curve."}, "BCKD [5]": {"tested_on": "BCKD", "experiment": "BCKD activity in tissues of high-fat-diet-induced obese (DIO) mice treated with BT2", "type": "in vivo, mouse", "details": "BT2 40 mg/kg/day 8 weeks oral gavage", "description": "as §1, §2"}, "BCKD subunit E1α": {"tested_on": "BCKD subunit E1α", "experiment": "Western blot of phosphorylated E1α and BCKDK in heart post-TAC", "type": "in vivo, mouse", "description": "Proteins from heart tissue were harvested in buffer (50 mM HEPES [pH7.4], 150 mM NaCl, 1% NP-40, 1 mM EDTA, 1 mM EGTA, 1 mM glycerophosphate, 2.5 mM sodium pyrophosphate 1 mM Na3VO4, 20 mM NaF, 1 mM phenylmethylsulfonyl fluoride, 1 μg/mL of aprotinin, leupeptin, and pepstatin). Samples were separated on 4-12% Bis-Tris gels (Invitrogen), and transferred onto a nitrocellulose blot (Amersham). The blot was probed with the indicated primary antibodies. Protein signals were detected using HRP conjugated secondary antibodies and enhanced chemiluminescence (ECL) western blotting detection regents (Pierce). Rabbit polyclonal antisera against the E1α subunits of BCKD complex and phosphor-E1α antibodies were purchased from Abcam. PP2Cm antibody was generated in the lab."}}, "note": "“Also recorded” adds a separate entry of the source.", "data": [{"smiles": "O=C(O)c1sc2cc(Cl)ccc2c1Cl", "note": "[BT2, 3,6-dichlorobenzo[b]thiophene-2-carboxylic acid]", "values": [{"measurement": "glucose tolerance", "setting": "ob/ob mice", "value": "significantly improved"}, {"measurement": "hyperinsulinemia", "setting": "ob/ob mice", "value": "attenuation"}, {"measurement": "insulin sensitivity", "setting": "ob/ob mice", "value": "significantly improved"}, {"measurement": "enhancement of cardiac BCKD activity", "setting": "BCKD [1]; PP2Cm-KO mice", "value": "~9", "unit": "fold"}, {"measurement": "enhancement of cardiac BCKD activity", "setting": "BCKD [1]; wild-type mice", "value": "~7", "unit": "fold"}, {"measurement": "plasma BCAA level", "setting": "[2]", "value": "modest impact; also recorded: reduced"}, {"measurement": "plasma BCKA level", "setting": "[2]", "value": "markedly reduced"}, {"measurement": "BCKD activity in different tissues including white adipose tissues", "setting": "BCKD [3]", "value": "significantly enhanced"}, {"measurement": "magnitudes of reductions in plasma BCKA concentrations (vs BCAA)", "setting": "[4]", "value": "far more pronounced"}, {"measurement": "plasma BCAA levels", "setting": "[4]", "value": "significantly lowered"}, {"measurement": "BCKD activity in heart, muscle liver and kidney", "setting": "BCKD [5]", "value": "augments"}, {"measurement": "cardiac BCAA catabolic activities post-TAC", "setting": "BCKD subunit E1α; intragastric, six weeks", "value": "enhanced"}, {"measurement": "BCKDK mediated E1α phosphorylation", "setting": "BCKD subunit E1α; post-TAC heart, BT2 40 mg/kg/day 6 weeks vs vehicle", "value": "significantly reduced"}, {"measurement": "BCKDK protein expression", "setting": "BCKD subunit E1α; post-TAC heart, BT2 vs vehicle", "value": "insignificant effect"}]}]}
